These results are taken from patent US20250134863A1, “MEDICAL AGENT FOR TREATING OR SUPPRESSING PROGRESSION OF AMYOTROPHIC LATERAL SCLEROSIS” (MITSUBISHI TANABE PHARMA CORPORATION, priority 2022, published 2025).

Where “and” joins values, the source holds several entries; their conditions need not be identical. Equal entries are not always repeated.

The test system of test [1] is ALS patients. Nature of the test: Post-hoc statistical analysis 1: percent change in ALSFRS-R slope on transition from placebo to edaravone (16, 17 and 19 trials). It is filed as in vivo, human. The following applies: for Percentage change in ALSFRS-R slope, Median: Wilcoxon p=0.0433. From the text:
After a 12-week observation period, patients whose ALSFRS-R total score decreased by 1 to 4 points during that period were considered eligible for the trial. In the 16 trial, eligible patients were randomly divided into an edaravone treatment group and a placebo administration group, and patients in each group received administration for 24 weeks (cycles 1 to 6). After completing the 24-week double-blind portion of the 16 trial, patients who received edaravone (E) were randomly assigned to the 17 trial, and during a 24-week double-blind extension period (cycles 7 to 12), edaravone treatment (EE group) or placebo administration (EP group) was performed. On the other hand, all patients from the placebo (P) administration group received edaravone treatment (PE group). All patients received open-label edaravone treatment for the next 12 weeks (cycles 13 to 15).
Edaravone was administered at a dose of 60 mg by intravenous infusion over 60 minutes, once daily. The infusion was given for 14 days in the first treatment cycle, and for 10 days out of the 14-day treatment period in all subsequent cycles. A 14-day drug holiday period was provided after each treatment cycle.
Similar to the 16 trial, after a 12-week observation period, patients in the 19 trial were randomly divided into an edaravone treatment group and a placebo administration group, and patients in each group received administration for 24 weeks (cycles 1 to 6). In the 19 trial, after the double-blind treatment period, all patients received open-label edaravone treatment for an additional 24 weeks (cycles 7 to 12). Therefore, the 19 trial included an EE group and a PE group.
In the present analysis, efficacy was analyzed for placebo patients who had completed the 24-week double-blind period (cycles 1 to 6) and had at least one data point in cycle 7. To estimate the percent change in ALSFRS-R slope for transition from placebo administration (baseline to 24 weeks) to edaravone administration (24 weeks 24 to 48 weeks), a random coefficient model was applied to all available ALSFRS-R score data during this period.
A 25% improvement group meets both of the following criteria:
(1) ALSFRS-R slope % change ≥+25% (this change is defined as a clinically significant improvement (Reference 5: Amyotroph Lateral Scler 2010; 11 (1-2): 178-180)) and (2) ALSFRS-R total score at the start of cycle 7 (24 weeks)>24 points (half of the 48-point ALSFRS-R total score) (this helps avoid floor effects related to the ALSFRS-R total score that could lead to false positives in the analysis).
These criteria were used to define a 25% improvement group and a non-25% improvement group. Using a mixed model for repeated measures, the changes in uric acid levels from the start of cycle 7 (24 weeks) to cycle 12 (48 weeks) were summarized for the 25% improvement group and the non-25% improvement group. The correlation between the change in uric acid levels from 24 weeks to 48 weeks and the ALSFRS-R slope percent change was descriptively summarized using the Wilcoxon test.

In test [2] the test system is ALS patients. Nature of the test: Post-hoc statistical analysis 2: uric acid levels from baseline to cycle 12 (16, 17 and 19 trials). The following applies: placebo-controlled double-blind period (cycles 1-6); edaravone group vs placebo group. It counts as in vivo, human.
Where [3] appears, read: entire placebo-edaravone treatment population.

Regarding `CC1=NN(c2ccccc2)C(=O)C1` [edaravone, 3-methyl-1-phenyl-2-pyrazolin-5-one], the “proportion of patients showing improvement in ALSFRS-R slope” value in test [1] (ALS severity grade 3) is on record as 64.3%; in test [1] (ALS severity grade 4), 66.7%. Further, the “proportion of patients with at least a 25% improvement in ALSFRS-R slope, cutoff of 24 points” value in test [1] (ALS severity grade 3) was 35.7%; in test [1] (ALS severity grade 4) it was 33.3%; in test [1] (setting [3]) it was 24%. Also, the “patients with 25% improvement in ALSFRS-R slope of edaravone compared to placebo” value in test [1] (ALS severity of grade 3 or 4 at the start of cycle 7, about one-third) is listed as 21/60. Further, the “Percentage change in ALSFRS-R slope, Median” value is 14% in test [1] (change in uric acid level >0 (n=41)) and −38% in test [1] (change in uric acid level ≤0 (n=105)). For the same compound, the “Percentage change in ALSFRS-R slope, Mean (SD)” value was −64 (199) % in test [1] (change in uric acid level >0 from start of cycle 7 to last administration of cycle 12 (n=41)) and −201 (664) % in test [1] (change in uric acid level ≤0 from start of cycle 7 to last administration of cycle 12 (n=105)). Also, the “proportion of patients showing improvement in ALSFRS-R slope upon transition from placebo to edaravone treatment” value in test [1] (setting [3]) is 43.2% and 43%. Also, the “decrease in uric acid levels from baseline at cycle 6” value in test [2] was “smaller decrease in uric acid levels compared to the placebo group”.
